From publication PMC7046733, “Plantaricin NC8 αβ exerts potent antimicrobial activity against Staphylococcus spp. and enhances the effects of antibiotics” (Scientific Reports, 2020)
Residues, ends and D or L forms follow the SMILES beside them.

Tests used:
Trypsin = test: Proteolytic degradation; format: in vitro ADME; conditions: peptide 100 µM, trypsin 0.125 mg/ml (~5 µM), ammonium bicarbonate buffer 50 mM pH 8.5, 16 h, 37 °C, MALDI-ToF MS
Excerpt: Samples were resuspended in MQ-water containing 0.1% TFA, desalted using ZipTip-C18 columns (Millipore) and analyzed using MALDI-ToF with α-cyano-4-hydroxycinnamic acid as matrix.

[1] = tested on: S. epidermidis ATCC 12228; test: microbe, parasite or virus in culture
Method: (§1) The broth microdilution method was used to determine minimal inhibitory concentration (MIC) and minimal bactericidal concentration (MBC). Briefly, two-fold serial dilutions of the peptides were used and the final concentrations ranged between 0.097–50 µM. The final concentrations of the antibiotics vancomycin and teicoplanin ranged between 0.097–50 µg/ml, while rifampicin ranged between 0.0019–1 µg/ml and gentamicin 0.0097–5 µg/ml. The inhibitory and bactericidal effects of peptides together with antibiotics were studied by using the same concentration series of antibiotics with constant, sub-MIC concentrations, of the peptides in all the wells (see figure legends). The plates were then incubated at 37 °C for 20 h. […] MBC was determined as the lowest concentration where no growth of bacterial colonies (10 µl) was observed on blood-agar plates. All experiments were repeated at least three times. The combined effect of teicoplanin and PLNC8 αβ against S. epidermidis ATCC 12228 was evaluated by the microdilution checkerboard method. Briefly, two-fold serial dilutions of the antibiotics and PLNC8 αβ were prepared together in microtiter plates, either alone or in combination. The MIC values were determined visually and spectroscopically, and the fractional inhibitory concentration (ΣFIC) was calculated by the equation (MIC of PLNC8 αβ in combination/MIC of PLNC8 αβ alone) + (MIC of antibiotic in combination/MIC of antibiotic alone). Synergy was defined as ΣFIC ≤ 0.5, additive when 0.5 <ΣFIC ≤1, indifferent when 1 <ΣFIC <2 and antagonistic when ΣFIC ≥ 2.

S. epidermidis 154 = test: Broth microdilution MIC/MBC; format: cell-based
Method: as §1

[2] = tested on: S. epidermidis 126 (hGISE); test: Broth microdilution MIC/MBC; format: cell-based
Method: as §1, with “legends).” for “legends). The plates were then incubated at 37 °C for 20 h.”

[3] = tested on: S. aureus CCUG 35601 (MRSA); test: Broth microdilution MIC/MBC; format: cell-based
Method: as §1, with “legends).” for “legends). The plates were then incubated at 37 °C for 20 h.”

[4] = tested on: S. epidermidis 157 (hGISE); test: Broth microdilution MIC/MBC; format: cell-based
Method: as §1, with “legends).” for “legends). The plates were then incubated at 37 °C for 20 h.”

human erythrocytes = test: Haemolysis; format: cell-based; conditions: isolated human erythrocytes, 1 h, 37 °C, n=3
Method: The haemolytic activity of the peptides was investigated by collecting blood from healthy volunteers in heparinized vacutainers. Briefly, the blood was centrifuged at 600 × g for 5 min and the erythrocyte pellet was washed three times in PBS. The cells were then suspended in PBS and added to 96-well plates (15% erythrocyte suspension/well), containing the peptides with two-fold serial dilution. The plates were incubated for 1 h at 37 °C followed by centrifugation for 5 min at 900 × g and measurement of the supernatants at 540 nm. Haemolytic activity (%) was calculated by subtracting the negative control from all values and normalization against the positive control (0.5% Triton X-100), that was set to 100%. All experiments, each in duplicate, were repeated three times.

[5] = Staphylococcus epidermidis, ATCC12228, 20 h
[6] = Staphylococcus epidermidis, 154, 20 h
[7] = Staphylococcus epidermidis, 24 h
[8] = antibiotic alone, broth microdilution, 37 °C, 20 h
[9] = S. epidermidis 126, antibiotic alone, after 24 h
[10] = MRSA, antibiotic alone, after 24 h
[11] = S. epidermidis 157, antibiotic alone, after 24 h

`CC(C)C[C@H](NC(=O)[C@H](Cc1ccc(O)cc1)NC(=O)[C@H](Cc1ccc(O)cc1)NC(=O)CNC(=O)[C@H](Cc1c[nH]c2ccccc12)NC(=O)[C@H](CO)NC(=O)[C@H](CO)NC(=O)[C@H](Cc1c[nH]c2ccccc12)NC(=O)[C@H](CC(C)C)NC(=O)[C@H](CCCCN)NC(=O)[C@@H](NC(=O)[C@@H](NC(=O)[C@H](CC(C)C)NC(=O)[C@@H](N)CC(=O)O)[C@@H](C)O)[C@@H](C)O)C(=O)NCC(=O)N[C@@H](CCCCN)C(=O)N[C@@H](CCCCN)C(=O)N[C@@H](C)C(=O)N[C@@H](CCCNC(=N)N)C(=O)N[C@@H](Cc1c[nH]c2ccccc12)C(=O)N[C@@H](CC(N)=O)C(=O)N[C@@H](CC(C)C)C(=O)N[C@@H](CCCCN)C(=O)N[C@@H](Cc1c[nH]cn1)C(=O)N1CCC[C@H]1C(=O)N[C@@H](Cc1ccc(O)cc1)C(=O)N[C@H](C(=O)N[C@@H](CCC(N)=O)C(=O)N[C@@H](Cc1ccccc1)C(=O)O)C(C)C` [L-PLNC8 α] (H-DLTTKLWSSWGYYLGKKARWNLKHPYVQF-OH) was tested, and the degradation by trypsin (Trypsin) was “efficiently degraded by trypsin”.

`CC[C@H](C)[C@H](NC(=O)CNC(=O)[C@H](CC(C)C)NC(=O)[C@@H](NC(=O)[C@H](Cc1ccc(O)cc1)NC(=O)[C@@H](NC(=O)[C@H](CO)NC(=O)[C@@H](NC(=O)[C@@H]1CCCN1C(=O)[C@@H](NC(=O)[C@@H](N)CO)C(C)C)[C@@H](C)O)C(C)C)[C@@H](C)O)C(=O)N[C@@H](CCCCN)C(=O)N[C@H](C(=O)N[C@@H](CC(C)C)C(=O)N[C@@H](Cc1c[nH]c2ccccc12)C(=O)N[C@@H](CO)C(=O)N[C@@H](C)C(=O)N[C@@H](Cc1ccc(O)cc1)C(=O)N[C@@H](CCCCN)C(=O)N[C@@H](Cc1c[nH]cn1)C(=O)N[C@@H](CCCNC(=N)N)C(=O)N[C@@H](CCCCN)C(=O)N[C@H](C(=O)N[C@H](C(=O)N[C@@H](CCC(=O)O)C(=O)N[C@@H](CCCCN)C(=O)N[C@@H](CO)C(=O)N[C@@H](Cc1ccccc1)C(=O)N[C@@H](CC(N)=O)C(=O)N[C@@H](CCCCN)C(=O)NCC(=O)N[C@@H](Cc1ccccc1)C(=O)N[C@@H](Cc1ccc(O)cc1)C(=O)N[C@@H](Cc1c[nH]cn1)C(=O)O)[C@@H](C)CC)[C@@H](C)O)[C@@H](C)CC` [L-PLNC8 β] (H-SVPTSVYTLGIKILWSAYKHRKTIEKSFNKGFYH-OH) was tested, and the degradation by trypsin (Trypsin) was “efficiently degraded by trypsin”.

`CN[C@H](CC(C)C)C(=O)N[C@H]1C(=O)N[C@@H](CC(N)=O)C(=O)N[C@H]2C(=O)N[C@H]3C(=O)N[C@H](C(=O)N[C@H](C(=O)O)c4cc(O)cc(O)c4-c4cc3ccc4O)[C@H](O)c3ccc(c(Cl)c3)Oc3cc2cc(c3O[C@@H]2O[C@H](CO)[C@@H](O)[C@H](O)[C@H]2O[C@H]2C[C@](C)(N)[C@H](O)[C@H](C)O2)Oc2ccc(cc2Cl)[C@H]1O` [Vancomycin, vancomycin] showed an MBC [1, 5] of 3.1 µg/mL, an MIC [1, 5] of 1.5 µg/mL and an MBC (S. epidermidis 154; [6]) of 3.1 µg/mL. For the same compound, the MIC (S. epidermidis 154; [6]) was 1.5 µg/mL, the MBC [2, 7] was 3.1 µg/mL and the MIC [2, 7] was 3.1 µg/mL. The MBC ([3]; Staphylococcus aureus, 24 h) was 3.1 µg/mL, the MBC [4, 7] was 6.25 µg/mL and the MIC [4, 7] was 6.25 µg/mL.

In the case of `CC[C@H](C)[C@H](NC(=O)CNC(=O)[C@H](CC(C)C)NC(=O)[C@@H](NC(=O)[C@@H](N)Cc1ccc(O)cc1)[C@@H](C)O)C(=O)N[C@@H](CCCCN)C(=O)N[C@H](C(=O)N[C@@H](CC(C)C)C(=O)N[C@@H](Cc1c[nH]c2ccccc12)C(=O)N[C@@H](CO)C(=O)N[C@@H](C)C(=O)N[C@@H](Cc1ccc(O)cc1)C(=O)N[C@@H](CCCCN)C(=O)N[C@@H](Cc1c[nH]cn1)C(=O)N[C@@H](CCCNC(=N)N)C(=O)N[C@@H](CCCCN)C(=O)N[C@H](C(=O)N[C@H](C(=O)N[C@@H](CCC(=O)O)C(=O)N[C@@H](CCCCN)C(=O)N[C@@H](CO)C(=O)N[C@@H](Cc1ccccc1)C(=O)N[C@@H](CC(N)=O)C(=O)N[C@@H](CCCCN)C(=O)NCC(=O)N[C@@H](Cc1ccccc1)C(=O)N[C@@H](Cc1ccc(O)cc1)C(=O)N[C@@H](Cc1c[nH]cn1)C(=O)O)[C@@H](C)CC)[C@@H](C)O)[C@@H](C)CC` [β7-34] (H-YTLGIKILWSAYKHRKTIEKSFNKGFYH-OH), the “cytotoxic at relevant concentrations (<50 µM), determined by haemolytic activity” value (human erythrocytes) was “nor the truncated α1–22, α1–15, β7–34, β7–20 and β1–20 were cytotoxic”.

teicoplanin showed an MBC [1, 8] of 1.5 µg/mL, an MIC [1, 8] of 1.5 µg/mL and an MBC (S. epidermidis 154; antibiotic alone, 20 h) of 1.5 µg/mL. The MIC (S. epidermidis 154; antibiotic alone, 20 h) was 1.5 µg/mL, the MBC [2, 9] was 6.25 µg/mL and the MIC [2, 9] was 3.1 µg/mL. It also gave an MBC [3, 10] of 3.1 µg/mL, an MIC [3, 10] of 0.78 µg/mL and an MBC [4, 11] of 25 µg/mL. The MIC [4, 11] was 12.5 µg/mL.
